Measured values from article PMC9279378, “Mode of action of fluopyram in plant-parasitic nematodes” (Scientific Reports, 2022).

How the values were obtained:
Details in all cases: pH 7.2; 20 µM decylubiquinone, 100 µM DCPIP, 0.33% succinate, 1 µM antimycin, 4% DMSO
[1] = biological target: T1, C. elegans SDH (mitochondrial complex II) (Caenorhabditis elegans, UniProt O62215+P41956+Q09545); test: succinate:ubiquinone reductase assay, DCPIP reduction at […] nm, mitochondrial protein; assay type: biochemical
T1 construct: gene sdhb-1; native complex II in mitochondrial preparation; wild-type strain N2 named for cultures, not explicitly for the mitochondria; with Succinate dehydrogenase [ubiquinone] flavoprotein subunit, mitochondrial

[2] = biological target: T2, SDH (mitochondrial complex II) of rat (Rattus norvegicus, UniProt P21913+Q641Z9+Q6PCT8)
T2 construct: gene Sdhb

[3] = biological target: T3, SDH (mitochondrial complex II) of earthworm; test: succinate:ubiquinone reductase assay, DCPIP reduction at […] nm, mitochondrial protein; assay type: biochemical, Eisenia andrei
T3 construct: gene SDHB; native complex II in mitochondrial preparation from earthworm; with Succinate dehydrogenase [ubiquinone] flavoprotein subunit, mitochondrial

T1 sequence (Q09545 36-298): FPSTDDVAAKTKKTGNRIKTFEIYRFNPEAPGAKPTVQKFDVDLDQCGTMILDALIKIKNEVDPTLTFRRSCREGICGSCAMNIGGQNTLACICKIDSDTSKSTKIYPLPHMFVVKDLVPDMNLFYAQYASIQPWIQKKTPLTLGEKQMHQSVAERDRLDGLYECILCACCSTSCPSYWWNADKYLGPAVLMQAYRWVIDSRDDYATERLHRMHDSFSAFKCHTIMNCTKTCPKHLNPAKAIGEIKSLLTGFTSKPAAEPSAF
T1 sequence (P41956 31-182): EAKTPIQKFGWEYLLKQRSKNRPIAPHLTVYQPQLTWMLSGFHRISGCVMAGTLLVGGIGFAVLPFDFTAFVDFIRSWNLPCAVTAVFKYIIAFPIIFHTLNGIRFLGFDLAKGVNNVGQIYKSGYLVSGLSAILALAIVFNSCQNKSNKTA
T1 sequence (O62215 32-145): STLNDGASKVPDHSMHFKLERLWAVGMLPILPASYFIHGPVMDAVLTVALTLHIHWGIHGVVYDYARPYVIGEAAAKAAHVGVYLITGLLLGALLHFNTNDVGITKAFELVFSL
T1 sequence (Q09508 32-646 partner): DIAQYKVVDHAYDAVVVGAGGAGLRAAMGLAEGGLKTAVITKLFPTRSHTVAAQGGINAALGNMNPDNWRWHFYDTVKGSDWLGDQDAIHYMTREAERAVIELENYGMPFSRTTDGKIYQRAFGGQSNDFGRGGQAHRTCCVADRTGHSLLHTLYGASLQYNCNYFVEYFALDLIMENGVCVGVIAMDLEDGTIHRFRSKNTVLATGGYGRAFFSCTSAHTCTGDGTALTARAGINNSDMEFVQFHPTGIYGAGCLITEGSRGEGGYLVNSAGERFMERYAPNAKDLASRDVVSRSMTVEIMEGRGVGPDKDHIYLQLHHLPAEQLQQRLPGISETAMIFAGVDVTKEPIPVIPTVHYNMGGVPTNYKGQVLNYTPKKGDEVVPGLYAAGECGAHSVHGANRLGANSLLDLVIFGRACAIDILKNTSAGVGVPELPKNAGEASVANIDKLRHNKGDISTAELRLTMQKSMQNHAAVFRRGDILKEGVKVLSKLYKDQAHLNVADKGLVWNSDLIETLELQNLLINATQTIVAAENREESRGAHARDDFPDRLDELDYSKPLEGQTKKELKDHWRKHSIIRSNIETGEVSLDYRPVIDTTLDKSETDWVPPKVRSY
T2 sequence (P21913 31-282): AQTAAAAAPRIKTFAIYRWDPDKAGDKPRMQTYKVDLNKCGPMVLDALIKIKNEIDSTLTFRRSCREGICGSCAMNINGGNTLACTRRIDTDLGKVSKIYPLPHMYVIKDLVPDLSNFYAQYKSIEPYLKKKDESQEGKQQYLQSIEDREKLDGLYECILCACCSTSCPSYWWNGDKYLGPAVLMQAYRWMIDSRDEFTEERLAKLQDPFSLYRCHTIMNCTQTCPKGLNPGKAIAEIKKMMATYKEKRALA
T2 sequence (Q641Z9 30-169): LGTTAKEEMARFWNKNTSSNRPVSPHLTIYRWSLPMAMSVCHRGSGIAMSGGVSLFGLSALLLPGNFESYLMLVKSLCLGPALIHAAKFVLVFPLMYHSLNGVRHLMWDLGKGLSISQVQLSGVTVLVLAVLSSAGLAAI
T2 sequence (Q6PCT8 57-159): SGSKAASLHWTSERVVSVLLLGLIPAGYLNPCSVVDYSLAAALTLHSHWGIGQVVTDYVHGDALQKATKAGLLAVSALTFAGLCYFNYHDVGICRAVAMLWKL
T2 sequence (Q920L2 35-656 partner): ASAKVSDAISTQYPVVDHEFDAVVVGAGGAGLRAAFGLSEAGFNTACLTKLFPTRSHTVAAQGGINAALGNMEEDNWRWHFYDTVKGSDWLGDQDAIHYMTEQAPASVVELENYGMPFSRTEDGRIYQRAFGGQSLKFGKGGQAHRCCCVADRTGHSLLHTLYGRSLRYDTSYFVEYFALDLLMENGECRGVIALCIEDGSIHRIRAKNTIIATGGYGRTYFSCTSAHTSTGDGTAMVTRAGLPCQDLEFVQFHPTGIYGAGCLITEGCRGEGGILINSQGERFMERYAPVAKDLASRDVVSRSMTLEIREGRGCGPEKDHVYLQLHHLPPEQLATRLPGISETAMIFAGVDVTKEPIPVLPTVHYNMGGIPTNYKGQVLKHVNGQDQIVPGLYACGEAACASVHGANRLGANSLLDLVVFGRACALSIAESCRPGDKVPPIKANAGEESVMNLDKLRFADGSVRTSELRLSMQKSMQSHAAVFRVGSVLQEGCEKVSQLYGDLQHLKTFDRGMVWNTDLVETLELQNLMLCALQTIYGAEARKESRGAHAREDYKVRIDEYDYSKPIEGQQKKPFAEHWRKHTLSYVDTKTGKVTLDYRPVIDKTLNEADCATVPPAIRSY

| SMILES | pIC50 [1] | pIC50 [2] | pIC50 [3] |
| --- | --- | --- | --- |
| O=C(NCCc1ncc(C(F)(F)F)cc1Cl)c1ccccc1C(F)(F)F [fluopyram] | 8.5 | – | – |
| COc1[nH]c(=O)c(C(=O)[C@@H](C)C[C@H](C)[C@@H](Cl)CCl)c(O)c1OC [Atpenin A5] | 7.7 | 8.2 | 8.1 |
| CC(C)Oc1cccc(NC(=O)c2ccccc2C(F)(F)F)c1 [flutolanil] | 6.5 | – | 6.0 |
